Results on four compounds are retold here after article PMC7995829 (ACS chemical biology, 2020).

The target in test [1] is T1, BglX (Pseudomonas aeruginosa, UniProt Q9I311). Nature of the test: inhibition assay. The class given is biochemical.
Test [2] has as its target T1, BglX. The experiment in a line: inhibition assay. It counts as biochemical. The settings on record: nonsubstrate, weak inhibitor.

SMILES strings stand for the structures. Where two headings read alike, the source gives them in different places.

As usually defined, the Ki is the dissociation constant of the complex between target and ligand, obtained from inhibition or displacement.

Compound `OC[C@H]1NC[C@H](O)[C@@H](O)[C@@H]1O` [NOJ, 1-deoxynojirimycin] returned a Ki on BglX [1] of 4.4 ± 0.5 mM.
With `OC[C@H]1O[C@@H](O[C@H]2[C@H](O)[C@@H](O)C(O)O[C@@H]2CO)[C@H](O)[C@@H](O)[C@@H]1O` (stereo partly shown) [cellobiose], the Ki at BglX [2] was more than 50 mM.
As for `OC[C@H]1O[C@@H](O[C@H]2[C@H](O)[C@@H](O)C(O)O[C@@H]2CO)[C@H](O)[C@@H](O)[C@H]1O` (stereo partly shown) [lactose], the Ki on BglX [2] is more than 50 mM.
At BglX [2], `OC1OC[C@@H](O[C@@H]2OC[C@@H](O[C@@H]3OC[C@@H](O)[C@H](O)[C@H]3O)[C@H](O)[C@H]2O)[C@H](O)[C@H]1O` (stereo partly shown) [xylotriose] displayed a Ki of more than 50 mM.
